Experimental data taken from the supplement of paper PMC12370961.

Key:
Assay in all cases: differential drug sensitivity score (dDSS) relative to sarcoma reference cohort mean DSS (DSS units (0-100 scale difference)); higher = more selective sensitivity than reference sarcomas
Conditions in all cases: exposure time: 72 h; concentration range: 10-10000 nM
[1] = test system: CDS-ZH001-2 (patient-derived CIC-DUX4 sarcoma tumoroid)
Method: (§1)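 Drug response profiling of patient-derived Ewing sarcoma and CIC::DUX4 sarcoma tumoroid models (or cells tested directly after isolation from the tumor, 'direct'). The DSS is the normalised AUC (0-100); dDSS is the sample DSS minus the mean DSS of a 34-sarcoma reference cohort profiled in the same lab.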

[2] = test system: CDS-ZH001 (patient-derived CIC-DUX4 sarcoma tumoroid)
Method: as §1

[3] = test system: CDS-ZH002 direct (CIC-DUX4 sarcoma cells right after isolation)
Method: as §1

[4] = test system: CDS-ZH002 (patient-derived CIC-DUX4 sarcoma tumoroid)
Method: as §1

[5] = test system: CDS-ZH003 (patient-derived CIC-DUX4 sarcoma tumoroid)
Method: as §1

[6] = test system: ES-ZH001 (patient-derived Ewing sarcoma tumoroid)
Method: as §1

[7] = test system: ES-ZH002 (patient-derived Ewing sarcoma tumoroid)
Method: as §1

[8] = test system: ES-ZH004 (patient-derived Ewing sarcoma tumoroid)
Method: as §1

[9] = test system: ES-ZH007 (patient-derived Ewing sarcoma tumoroid)
Method: as §1

[10] = test system: ES-ZH008 (patient-derived Ewing sarcoma tumoroid)
Method: as §1

[11] = test system: ES-ZH009 (patient-derived Ewing sarcoma tumoroid)
Method: as §1

[12] = test system: ES-ZH016 direct (Ewing sarcoma cells right after isolation)
Method: as §1

[13] = test system: ES-ZH016 (patient-derived Ewing sarcoma tumoroid)
Method: as §1

Compound | differential drug sensitivity score [1] | differential drug sensitivity score [2] | differential drug sensitivity score [3] | differential drug sensitivity score [4] | differential drug sensitivity score [5] | differential drug sensitivity score [6] | differential drug sensitivity score [7] | differential drug sensitivity score [8] | differential drug sensitivity score [9] | differential drug sensitivity score [10] | differential drug sensitivity score [11] | differential drug sensitivity score [12] | differential drug sensitivity score [13]
Cn1nnc2c(C(N)=O)ncn2c1=O [Temozolomide] | 3.5 | 3.6 | 1.1 | 1.4 | 7.1 | 3.2 | 2.1 | -1.7 | -1.3 | -1.3 | 7 | 14.8 | 13.8
CO[C@H]1C[C@@H]2CC[C@@H](C)[C@@](O)(O2)C(=O)C(=O)N2CCCC[C@H]2C(=O)O[C@H]([C@H](C)C[C@@H]2CC[C@@H](OC(=O)C(C)(CO)CO)[C@H](OC)C2)CC(=O)[C@H](C)/C=C(\C)[C@@H](O)[C@@H](OC)C(=O)[C@H](C)C[C@H](C)/C=C/C=C/C=C/1C [Temsirolimus] | 4 | 0.8 | 4.8 | -7 | 2.1 | 6.2 | 15.8 | 8.3 | 5.9 | 3.1 | 11.1 | -6.2 | -3
CN1CCC(COc2cnc(-c3cccc(Cn4nc(-c5cccc(C#N)c5)ccc4=O)c3)nc2)CC1 [Tepotinib] | -2.5 | -1.4 | 2.3 | -5.4 | 3.5 | 4.4 | 0.6 | -4.7 | -0.6 | -4.7 | 9 | -4.5 | -4.3
Nc1nc2[nH]cnc2c(=S)[nH]1 [Thioguanine] | 5.1 | 1 | 2.5 | 0.2 | -4.2 | 15.5 | 17.1 | 12.4 | 1.2 | 10.4 | 9.6 | 3.7 | -4.8
S=P(N1CC1)(N1CC1)N1CC1 [Thiotepa] | 0.2 | 4.6 | -4.2 | -3.1 | 9.4 | 7 | 11.2 | 5.2 | 3.1 | 8.7 | -1.4 | 17 | 9.2
O=C(Cc1ccc(-c2ccc(OCCN3CCOCC3)cc2)cn1)NCc1ccccc1 [Tirbanibulin] | 1.4 | 8.2 | 1.7 | 4 | -7.7 | 9.3 | 13.5 | 5.9 | 4.5 | 6.4 | 10.5 | 7.2 | 11.4
O=C1NC(=O)[C@@H](c2cn3c4c(cccc24)CCC3)[C@@H]1c1c[nH]c2ccccc12 [Tivantinib] | -0.2 | 2.5 | -1.2 | -3.1 | -3.8 | 9.4 | 9.4 | 1 | 2.7 | -1.9 | 7.7 | 2.2 | 7.4
C[C@@H]1CCN(C(=O)CC#N)C[C@@H]1N(C)c1ncnc2[nH]ccc12 [Tofacitinib] | -1.3 | -1.3 | 0.3 | -1.3 | -3.7 | 5.4 | 6.4 | 0.8 | -1 | 4.8 | -0.3 | -1.3 | -1.3
CC[C@@]1(O)C(=O)OCc2c1cc1n(c2=O)Cc2cc3c(CN(C)C)c(O)ccc3nc2-1 [Topotecan] | 3.4 | 5.3 | -4.9 | -2.7 | 8 | 19.4 | 20.1 | 16.4 | 19.4 | 10.8 | 15.8 | 7.3 | 19.6
CCC(=O)N1CCN(c2ccc(-n3c(=O)ccc4cnc5ccc(-c6cnc7ccccc7c6)cc5c43)cc2C(F)(F)F)CC1 [Torin-1] | 1.9 | 4.9 | -8.4 | -4 | 4.4 | -3.5 | 6.9 | -2.7 | -0.5 | 0.8 | 6.3 | -6.9 | -1.2
CC(C)n1nc(-c2cc3cc(O)ccc3[nH]2)c2c(N)ncnc21 [Torkinib] | 2.3 | 4.4 | -0.9 | -1.3 | -3.5 | 2.1 | 13.7 | 5.2 | 1.1 | 8.1 | 2 | -1.3 | 2.2
CC(=O)Nc1cccc(-n2c(=O)n(C3CC3)c(=O)c3c(Nc4ccc(I)cc4F)n(C)c(=O)c(C)c32)c1 [Trametinib] | -3.5 | -3.5 | -3.5 | -3.5 | 3.2 | 3.2 | 9.5 | 1.5 | -3.5 | 4.1 | -3.5 | -3.5 | -3.5
Cn1ncc(Cl)c1-c1cc(C(=O)N[C@H](CN)Cc2ccc(F)c(F)c2)oc1Cl [Uprosertib] | 3.3 | 3.3 | -6 | -3.2 | -2.5 | -2.4 | 10.7 | 7.2 | 1 | 11.2 | 5.6 | -3.2 | 1
CCCC(CCC)C(=O)O [Valproic acid] | -0.9 | -2.5 | -1.9 | -2.5 | -1.3 | 2.8 | 4.4 | 8.2 | 0.9 | 1.7 | 1.7 | 6.5 | -2.5
